Counter-ions that a name gives are not always drawn.
Tests used:
[1] = Solubility of bumetanide (free acid) in water in the presence and absence of surfactant, HPLC; format: physicochemical; settings: 10 mg in 1 mL deionized water, no surfactant
Experimental: Bumetanide, 10 mg, in its free acid form was added to 1 mL of deionized water and mixed using a vortex and sonicator. The solution was filtered using a 0.22 μm nylon syringe filter. To 900 μL deionized water, 100 μL of the filtered bumetanide solution was added before being characterized for the concentration of the bumetanide in solution using HPLC. The concentration of bumetanide was determined using a standard curve generated by bumetanide solutions of known concentrations. […] Therefore, to the 10 mg of bumetanide, 1 mL of deionized water containing 1.0%, 0.5% or 0.1% of the surfactant tetradecyl-β-D-maltoside. The bumetanide was then solubilized using a vortex and sonicator, after which it was filtered using a 0.22 μm nylon syringe filter. To 900 μL deionized water, 100 μL of the filtered bumetanide solution was added before being characterized for the concentration of the bumetanide in solution using HPLC. The resulting bumetanide concentrations are recorded in Table 1.

[2] = Serum pharmacokinetics of bumetanide after single intranasal, sublingual or intravenous dose in dogs; settings: both sexes, beagle, dog, in vivo, 0.5-mg IV dose (Second Replicate), individual animals
Experimental: The purpose of this study was to assess the pharmacokinetic profiles of various formulations of bumetanide, including arginine bumetanide salts (F69), potassium bumetanide salts (F10), an bumetanide emulsion (FE-9), and a nano-emulsion of bumetanide (FNE-1), which are described in Table 42, when each formulation is administered as a single intranasal dose or as a single sublingual dose in different vehicles when compared to single IV administration dose in male and female beagle dogs.
A total of four dogs were assigned to the study (3 males, 8-12 kg and 1 female, 7-11 kg). Because bumetanide is a diuretic, 30 minutes prior to dosing, the dogs received a 100 mL injection of Lactated Ringer's solution subcutaneously (SQ) for all events. The 100 mL injection was repeated ˜2 hours post-dose.
This study was conducted in 9 Events in two phases (A and B) in the same animals, separated by approximately a 48 hour or more washout period between events in each phase and ˜2 weeks rest period between phases, meaning Phase B events were initiated after ˜2 weeks rest period from completion of Event 5. The dosing regimen for Phase A and Phase B events are described in Table 43 and 44 respectively.
For intranasal administration, each dog was held in an upright position with the nose pointing up. […]

[3] = Stability of arginine and potassium bumetanide salt solutions over four weeks at 5 °C or 25 °C; format: physicochemical; settings: for stability in solution (conclusion): at either 5° C. or 25° C.
Experimental: The stability of the arginine and potassium bumetanide salts was monitored over a four week period with storage at either 2-8° C. or 25° C. for that time period. The bumetanide salt solutions were evaluated on the basis of pH, concentration of bumetanide in solution, the percent assay recovery and the presence of an impurity (see Tables 18 and 19).

[4] = Solubility of bumetanide salts formed in situ with various bases (saturated solution, HPLC); format: physicochemical; settings: deionized water with base added (salt formed in situ), thermodynamic from solid, 20 mg bumetanide in 1 mL deionized water + base, 0.22 μm filtrate, read-out: Calculated conc. (measured solubility of bumetanide salt)
Experimental: The acid form of bumetanide was weighed out to 20 mg and dissolved in 1 mL of deionized water by mixing with a vortex to form a low-pH solution of bumetanide. To this low pH bumetanide solution, a determined amount of base was added and mixed using a vortex for 2 minutes, to form a solution having a pH suitable for nasal administration. With the increasing pH the bumetanide salt formed in situ precipitated, in part, to form a saturated solution of the resulting salt form. The saturated solution was then filtered through a 0.22 μm filter to remove all precipitated bumetanide salt. The filtrate was collected, and its pH was measured. An aliquot of the saturated solution was assayed for bumetanide by HPLC to determine the maximum concentration achievable for the salt form in water at about neutral pH.
This procedure was repeated for various bases, including arginine, lysine, potassium, sodium, glycine, histidine, and the cationic lipophilic surfactants soy lecithin, distearoyl glycerol-3-phosphatidylamine, L-α-phosphatidylethanolamine and bis(2-ethylhexyl)amine, in order to determine the maximum solubility of each bumetanide salt solution.

Row | Compound | Assay ([3]; 1 week, 5° C.) [mg/mL] | pH ([3]; 1 week, 5° C.) | Assay ([3]; 1 week, 25° C.) [mg/mL] | pH ([3]; 1 week, 25° C.) | Assay ([3]; 2 weeks, 5° C.) [mg/mL] | pH ([3]; 2 weeks, 5° C.) | Assay ([3]; 2 weeks, 25° C.) [mg/mL] | pH ([3]; 2 weeks, 25° C.) | Assay ([3]; 4 weeks, 5° C.) [mg/mL] | pH ([3]; 4 weeks, 5° C.) | Assay ([3]; 4 weeks, 25° C.) [mg/mL] | pH ([3]; 4 weeks, 25° C.) | Assay ([3]; T0) [mg/mL] | Osmolality ([3]; T0) [mOsm/kg] | Viscosity ([3]; T0) [cP] | pH ([3]; T0) | stability in solution (conclusion) [3] | other results
1 | CCCCNc1cc(C(=O)O)cc(S(N)(=O)=O)c1Oc1ccccc1 [Bumetanide, bumetanide] | – | – | – | – | – | – | – | – | – | – | – | – | – | – | – | – | – | solubility of free acid form in water [1]: Nearly no bumetanide in the free acid form was soluble water; concentration at 45 min [2]: 13.9 ng/mL
2 | CCCCNc1cc(C(=O)O)cc(S(N)(=O)=O)c1Oc1ccccc1 [potassium bumetanide salt] | 5.18 | 7.0 | 5.10 | 7.0 | 4.97 | 7.0 | 4.96 | 7.1 | 5.00 | 7.0 | 5.03 | 7.1 | 5.10 | 317 | 1.3 | 7.0 | stable for up to four weeks | solubility at 2 min [4]: 20.2 mg/mL
3 | CCCCNc1cc(C(=O)O)cc(S(N)(=O)=O)c1Oc1ccccc1.N=C(N)NCCCC(N)C(=O)O [arginine bumetanide salt] | 5.08 | 7.0 | 5.06 | 7.1 | 4.99 | 7.0 | 4.97 | 7.0 | 4.89 | 7.0 | 4.97 | 7.1 | 5.07 | 335 | 1.3 | 7.0 | stable for up to four weeks | impurity by HPLC ([3]; initially or after four weeks, 5° C. and 25° C.): no impurity was detected
